The text below walks through data of patent US8912216B2, “Hetaryl-[1,8]naphthyridine derivatives” (Merck Patent GmbH, priority 2010, dated 2014).

Structures are written as SMILES. A value given as a limit tells only on which side of the number the result lay.

One test has as its target T1, GST-ALK5 (Homo sapiens, UniProt P36897).
T1 sequence (P36897 34-503): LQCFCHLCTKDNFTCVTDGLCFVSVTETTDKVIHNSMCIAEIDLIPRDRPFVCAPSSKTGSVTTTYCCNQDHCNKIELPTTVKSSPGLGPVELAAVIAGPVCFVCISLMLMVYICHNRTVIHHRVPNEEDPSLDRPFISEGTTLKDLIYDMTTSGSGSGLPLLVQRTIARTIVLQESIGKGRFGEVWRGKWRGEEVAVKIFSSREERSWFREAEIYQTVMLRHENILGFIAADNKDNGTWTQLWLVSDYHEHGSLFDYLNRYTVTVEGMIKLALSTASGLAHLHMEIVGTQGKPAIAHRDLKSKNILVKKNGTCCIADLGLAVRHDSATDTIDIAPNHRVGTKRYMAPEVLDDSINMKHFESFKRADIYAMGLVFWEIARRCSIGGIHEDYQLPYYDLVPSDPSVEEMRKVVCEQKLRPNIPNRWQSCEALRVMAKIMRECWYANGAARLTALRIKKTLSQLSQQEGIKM
Briefly: In-vitro (enzyme) kinase assay, 384-well flashplate (Example 36). Format: biochemical. The note with it: GST-ALK5, GST-SMAD2 substrate, 3 mM ATP, 30° C., 45 min; read-out: TβR activity (Example 36). In short, it runs like this: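 Radiometric flashplate assay: 31.2 nM GST-ALK5 phosphorylating 439 nM GST-SMAD2 with 3 mM ATP plus ³³P-ATP, in HEPES/MgCl2/MnCl2/DTT/BSA buffer pH 7.4, 45 min at 30 °C, 5-10 compound concentrations. EDTA stop, filtration and washing, then radioactivity counted; IC50 derived from the curve.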

Test [1] has as its system TGF-beta-induced phosphorylation of Smad2 and Smad3 in Mv1-Lu cells. Kind of test: Inhibition of Smad2/3 phosphorylation in Mv1Lu cells (Example 35A). Format: cell-based, mink Mustela vison. The note with it: Neogale vison, Mv1-Lu cells, TGF-beta 1 5 ng/ml, phospho-Smad2/3 ELISA, read-out: TβR activity (Example 35A). In a few lines:
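Serum-starved (16-20 h) Mv1-Lu mink lung epithelial cells were pre-incubated 1.5 h with compound dilutions (0.2% DMSO), then stimulated 1 h with 5 ng/ml TGF-beta 1. Phospho-Smad2 (Ser465/467)/Smad3 (Ser423/425) in lysates was measured by ELISA. IC50 came from dose-response fits between stimulated and unstimulated controls.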

In the case of `COCCN1CCC(n2cc(-c3cncc(-c4cc(-c5cc(Cl)ccc5F)nc5ncccc45)c3)cn2)CC1` [compound 44, 2-(5-chloro-2-fluoro-phenyl)-4-(5-{1-[1-(2-methoxy-ethyl)-piperidin-4-yl]-1H-pyrazol-4-yl}-pyridin-3-yl)-[1,8]naphthyridine], the IC50 (on GST-ALK5; in test [1]) was less than 100 nM throughout.

`Fc1ccc(Cl)cc1-c1cc(-c2cncc(-c3ccc4c(c3)NCCC4)c2)c2cccnc2n1` [compound 151, 2-(5-Chloro-2-fluoro-phenyl)-4-[5-(1,2,3,4-tetrahydro-quinolin-7-yl)-pyridin-3-yl]-[1,8]naphthyridine]: the IC50 on GST-ALK5 is 100 to 1000 nM; in test [1], less than 100 nM.

For `CN1CCN(c2cc(-c3cncc(-c4cc(-c5cc(Cl)ccc5F)nc5ncccc45)c3)ncn2)CC1` [compound 119, 2-(5-Chloro-2-fluoro-phenyl)-4-{5-[6-(4-methyl-piperazin-1-yl)-pyrimidin-4-yl]-pyridin-3-yl}-[1,8]naphthyridine], the IC50 (at GST-ALK5; in test [1]) was 100 to 1000 nM throughout.

With `CN(C)CCCn1cc(-c2cncc(-c3cc(-c4cc(Cl)ccc4F)nc4ncccc34)c2)cn1` [compound 97, [3-(4-{5-[2-(5-Chloro-2-fluoro-phenyl)-[1,8]naphthyridin-4-yl]-pyridin-3-yl}-pyrazol-1-yl)-propyl]-dimethyl-amine], the IC50 (on GST-ALK5; in test [1]) was less than 100 nM each time.

`CN1CCC(NC(=O)c2cccc(-c3cncc(-c4cc(-c5cc(Cl)ccc5F)nc5ncccc45)c3)c2)CC1` [compound 126, 3-{5-[2-(5-Chloro-2-fluoro-phenyl)-[1,8]naphthyridin-4-yl]-pyridin-3-yl}-N-(1-methyl-piperidin-4-yl)-benzamide]: the IC50 (on GST-ALK5; in test [1]) was 100 to 1000 nM in each case.

For the compound `CC(C)N1CCc2ccc(-c3cncc(-c4cc(-c5cc(Cl)ccc5F)nc5ncccc45)c3)cc2C1` [compound 176, 2-(5-Chloro-2-fluoro-phenyl)-4-[5-(2-isopropyl-1,2,3,4-tetrahydro-isoquinolin-7-yl)-pyridin-3-yl]-[1,8]naphthyridine], the IC50 (on GST-ALK5; in test [1]) was less than 100 nM throughout.

Consider `CN1CCN(c2ccc(-c3cncc(-c4cc(-c5cc(F)ccc5F)nc5ncccc45)c3)cc2)CC1` [compound 114, 2-(2,5-Difluoro-phenyl)-4-{5-[4-(4-methyl-piperazin-1-yl)-phenyl]-pyridin-3-yl}-[1,8]naphthyridine], for which the IC50 (at GST-ALK5; in test [1]) was less than 100 nM throughout.

Regarding `Cn1cc(-c2cncc(-c3cc(-c4cc(F)c(F)cc4F)nc4ncccc34)c2)cn1` [compound 17, 4-[5-(1-Methyl-1H-pyrazol-4-yl)-pyridin-3-yl]-2-(2,4,5-trifluoro-phenyl)-[1,8]naphthyridine], the IC50 at GST-ALK5 was 100 to 1000 nM; in test [1] it was 1000 to 10000 nM.

As for `Fc1ccc(Cl)cc1-c1cc(-c2cncc(-c3cccc(C(F)(F)F)n3)c2)c2cccnc2n1` [compound 106, 2-(5-Chloro-2-fluoro-phenyl)-4-(6-trifluoromethyl-[2,3′]bipyridinyl-5′-yl)-[1,8]naphthyridine], the IC50 at GST-ALK5 is 100 to 1000 nM; in test [1], greater than 10000 nM.

For `Cn1cc(-c2cncc(-c3cc(-c4ccc(F)cc4)nc4ncccc34)c2)cn1` [compound 16, 2-(4-Fluoro-phenyl)-4-[5-(1-methyl-1H-pyrazol-4-yl)-pyridin-3-yl]-[1,8]naphthyridine], the IC50 at GST-ALK5 fell in the range of 100 to 1000 nM; in test [1] it was 1000 to 10000 nM.

Turning to `Fc1ccc(C(F)(F)F)cc1-c1cc(-c2cncc(-c3cnn(CCN4CCCC4)c3)c2)c2cccnc2n1` [compound 19, 2-(2-Fluoro-5-trifluoromethyl-phenyl)-4-{5-[1-(2-pyrrolidin-1-yl-ethyl)-1H-pyrazol-4-yl]-pyridin-3-yl}-[1,8]naphthyridine], the IC50 (at GST-ALK5; in test [1]) was less than 100 nM each time.

For the compound `Fc1ccc(Cl)cc1-c1cc(-c2cncc(-c3ccc4c(c3)CNCC4)c2)c2cccnc2n1` [compound 136, 2-(5-Chloro-2-fluoro-phenyl)-4-[5-(1,2,3,4-tetrahydro-isoquinolin-7-yl)-pyridin-3-yl]-[1,8]naphthyridine], the IC50 (at GST-ALK5; in test [1]) was less than 100 nM throughout.

`CN1CCN(c2ccc(-c3cncc(-c4cc(-c5cc(F)ccc5F)nc5ncccc45)c3)nn2)CC1` [compound 140, 2-(2,5-Difluoro-phenyl)-4-{5-[6-(4-methyl-piperazin-1-yl)-pyridazin-3-yl]-pyridin-3-yl}-[1,8]naphthyridine]: the IC50 was in the range of 100 to 1000 nM at GST-ALK5 and 1000 to 10000 nM in test [1].

Consider `Fc1ccc(F)c(-c2cc(-c3cncc(-c4cccc(OC5CCNCC5)c4)c3)c3cccnc3n2)c1` [compound 144, 2-(2,5-Difluoro-phenyl)-4-{5-[3-(piperidin-4-yloxy)-phenyl]-pyridin-3-yl}-[1,8]naphthyridine], for which the IC50 at GST-ALK5 is less than 100 nM; in test [1], 100 to 1000 nM.

Regarding `CN1CCC(n2cc(-c3cncc(-c4cc(-c5cc(F)ccc5F)nc5ncccc45)c3)cn2)CC1` [compound 35, 2-(2,5-Difluoro-phenyl)-4-{5-[1-(1-methyl-piperidin-4-yl)-1H-pyrazol-4-yl]-pyridin-3-yl}-[1,8]naphthyridine], the IC50 (on GST-ALK5; in test [1]) was less than 100 nM in each case.

Regarding `NCCc1ccccc1-c1cncc(-c2cc(-c3cc(Cl)ccc3F)nc3ncccc23)c1` [compound 152, 2-(2-{5-[2-(5-Chloro-2-fluoro-phenyl)-[1,8]naphthyridin-4-yl]-pyridin-3-yl}-phenyl)-ethylamine], the IC50 (at GST-ALK5; in test [1]) was 1000 to 10000 nM in each case.

Consider `OCC(O)Cn1cc(-c2cncc(-c3cc(-c4cc(F)ccc4F)nc4ncccc34)c2)cn1` (centres unmarked) [compound 88, 3-(4-{5-[2-(2,5-Difluoro-phenyl)-[1,8]naphthyridin-4-yl]-pyridin-3-yl}-pyrazol-1-yl)-propane-1,2-diol], for which the IC50 on GST-ALK5 is less than 100 nM; in test [1] it was 1000 to 10000 nM.

Turning to `CN(C)CCNC(=O)c1cccc(-c2cncc(-c3cc(-c4cc(Cl)ccc4F)nc4ncccc34)c2)c1` [compound 118, 3-{5-[2-(5-Chloro-2-fluoro-phenyl)-[1,8]naphthyridin-4-yl]-pyridin-3-yl}-N-(2-dimethylamino-ethyl)-benzamide], the IC50 on GST-ALK5 was less than 100 nM; in test [1] it was 100 to 1000 nM.

As to `COc1cccc(-c2cncc(-c3cc(-c4cc(Cl)ccc4F)nc4ncccc34)c2)n1` [compound 111, 2-(5-Chloro-2-fluoro-phenyl)-4-(6-methoxy-[2,3′]bipyridinyl-5′-yl)-[1,8]naphthyridine], the IC50 (on GST-ALK5; in test [1]) was 100 to 1000 nM throughout.

With `CN1CCC(n2cc(-c3cncc(-c4cc(-c5cc(Cl)ccc5F)nc5ncccc45)c3)nn2)CC1` [compound 57, 2-(5-Chloro-2-fluoro-phenyl)-4-{5-[1-(1-methyl-piperidin-4-yl)-1H-[1,2,3]triazol-4-yl]-pyridin-3-yl}-[1,8]naphthyridine], the IC50 (on GST-ALK5; in test [1]) was less than 100 nM throughout.

For the compound `OCCn1cc(-c2cncc(-c3cc(-c4ccccc4F)nc4ncccc34)n2)cn1` [compound 83, 2-(4-{6-[2-(2-Fluoro-phenyl)-[1,8]naphthyridin-4-yl]-pyrazin-2-yl}-pyrazol-1-yl)-ethanol], the values for the IC50 (at GST-ALK5; in test [1]) were less than 100 nM and 1000 to 10000 nM, respectively.

For the compound `Nc1ccc(-c2cncc(-c3cc(-c4cc(Cl)ccc4F)nc4ncccc34)c2)cn1` [compound 169, 5′-[2-(5-Chloro-2-fluoro-phenyl)-[1,8]naphthyridin-4-yl]-[3,3′]bipyridinyl-6-ylamine], the IC50 at GST-ALK5 was less than 100 nM; in test [1], 100 to 1000 nM.

Take `CCN1CCc2ccc(-c3cncc(-c4cc(-c5cc(Cl)ccc5F)nc5ncccc45)c3)cc2C1` [compound 173, 2-(5-Chloro-2-fluoro-phenyl)-4-[5-(2-ethyl-1,2,3,4-tetrahydro-isoquinolin-7-yl)-pyridin-3-yl]-[1,8]naphthyridine]: the IC50 (on GST-ALK5; in test [1]) was less than 100 nM in each case.

For the compound `CC(C)N1CCC(c2ccc(-c3cncc(-c4cc(-c5cc(Cl)ccc5F)nc5ncccc45)c3)cc2)CC1` [compound 174, 2-(5-Chloro-2-fluoro-phenyl)-4-{5-[4-(1-isopropyl-piperidin-4-yl)-phenyl]-pyridin-3-yl}-[1,8]naphthyridine], the IC50 (on GST-ALK5; in test [1]) was less than 100 nM each time.

Take `Cn1cc(-c2cncc(-c3cc(-c4cccc(Cl)c4)nc4ncccc34)c2)cn1` [compound 9, 2-(3-Chloro-phenyl)-4-[5-(1-methyl-1H-pyrazol-4-yl)-pyridin-3-yl]-[1,8]naphthyridine]: the IC50 at GST-ALK5 fell in the range of 100 to 1000 nM; in test [1] it was 1000 to 10000 nM.
